Experiments:
[1] = tested on: L. monocytogenes 149; test: CLSM analysis, biofilm prevention; assay type: cell-based, Listeria monocytogenes; conditions: for proportion of membrane-compromised cells: 24 h; for Thickness (µm) MICBM80 / Thickness (µm) subCBM80: 24 h exposure; for Thickness (µm) MICBM80: substance at its MICBM80, mean ± SD; for Thickness (µm) subCBM80: substance at subinhibitory concentration, mean ± SD
Method: (§1) Biofilm prevention and removal analyses were performed using previously determined minimum inhibitory and subinhibitory concentrations for metabolic activity (MICBM80, subCBM80; MICMPB80, subCMPB80) of NAC, RLs, and UA specific for each tested strain. Selected concentrations were used to evaluate the inhibition of biofilm formation (biofilm prevention) and the reduction in previously formed biofilms (biofilm removal) for the same set of microorganisms, with the exception of S. Infantis, which was excluded from the analysis due to its inability to form biofilm in the selected microtiter plate. Biofilm prevention and removal were observed using CLSM with specific staining to distinguish between live and membrane-compromised cells. Images were analyzed to evaluate (i). the total volume of the biomass, (ii). ratios of live and membrane-compromised cells, and (iii). to calculate biofilm volume reduction for individual organisms after the respective treatment types. The total biofilm volume was normalized by the area of the well and expressed as an average biofilm thickness. Complete data are provided in Supplementary Materials (Tables S1–S8).
(§2) For both inhibition and reduction of biofilms, overnight cultures from BHI were diluted in TSB + 1% Glc to reach an absorbance of 0.08 to 0.1 at 625 nm. The inoculum (150 µL) was transferred into wells of the 96-well flat-bottomed Ibidiμ-Plate (Ibidi, Gräfelfing, Germany) and mixed with 150 µL of each of the three tested substances in technical quadruplicates, followed by incubation at 37 °C for 24 h. Simultaneously, the prepared bacterial suspensions were inoculated to an additional microtiter plate (200 µL) and allowed to form biofilm overnight (18 h at 37 °C). After the incubation, the content of the well was drained off, and 200 µL of each of the three tested substances was added to the plate, which was then incubated for an additional 20 h. The used concentrations of the substances represented the subinhibitory and minimum inhibitory concentrations for metabolic activity (subCBM80, MICBM80; subCMPB80, MICMPB80). Both setups contained a positive control of the bacterial growth (inoculum mixed with sterile TSB + 1% Glc medium) and a control monitoring microbial contamination (sterile medium). Non-treated wells were used as a positive control for comparison between non-treated and treated biofilm mass.
(§3) Prior to the imaging, the wells were stained with the LIVE/DEAD® BacLight™ Bacterial Viability Kit (Thermo Fisher Scientific, MA, USA) following the manufacturer’s guidelines and Drago et al.. Briefly, equal volumes of SYTO® 9 and propidium iodide were combined with the sterile distilled water to reach a final concentration of […]. The biofilm mass was stained using 300 µL of the staining solution per well followed by incubation at 37 °C in the dark for 15 min. Stained wells were washed once with sterile distilled water, which was then added to each well (300 µL). Images were acquired with an inverted Leica SP5 CLSM using a 1.25× dry objective (WD 3.7 mm, Z-resolution 27 µm, up to 24 Z-stacks per well) to visualize an entire well. Samples were kept at the cultivation conditions (37 °C, 5% CO2, 90% humidity) with an OkoLabs stage top environmental chamber (Oko Labs, PA, USA). Fluorophore excitation lasers and emission bandwidths were as follows: SYTO® 9 (ex/em 485/498 nm) 488 nm excitation, 495 to 550 nm emission collection; propidium iodide (ex/em 535/617 nm) 561 nm excitation, 595 to 650 nm emission collection. The laser beam scanned the visual field at a frequency of 600 Hz. The wells were captured in snapshots of 1024 × 1024 pixels representing the area of 153.76 mm^2.
(§4) All collected images were statistically evaluated to quantify biovolume utilizing the surface estimation procedure described in Parker et al.. […]

[2] = tested on: L. monocytogenes 164; test: CLSM analysis, biofilm prevention; assay type: cell-based, Listeria monocytogenes; conditions: for Thickness (µm) MICBM80 / Thickness (µm) subCBM80: 24 h exposure; for Thickness (µm) MICBM80: substance at its MICBM80, mean ± SD; for Thickness (µm) subCBM80: substance at subinhibitory concentration, mean ± SD
Method: as §1, §2, §3, §4

[3] = tested on: S. Infantis S13; test: MIC for biofilm metabolic activity (MTT reduction assay); assay type: cell-based, Salmonella enterica Infantis; conditions: for MICBM80: ≥80% inhibition, 24 h
Method: (§5) Ten concentrations of NAC, RLs, and UA were tested to determine the minimum inhibitory concentration for planktonic growth, and subsequently, the six highest concentrations were applied on preformed biofilms to evaluate the biofilm eradication ability of the compounds. MIC was defined as the lowest substance concentration able to inhibit at least 80% of microbial growth (MICPC80 for planktonic cells, MICBC80 for further growth of biofilm cells), inhibit 80% of metabolic activity (MICBM80 for biofilm metabolic activity, MICMPB80 for metabolic activity of preformed biofilm), prevent biofilm formation by at least 80% (MICBF80 for biofilm formation), or reduce a preformed biofilm by at least 80% (MICBR80 for biofilm reduction). The results of MICs are summarized in Table 1 (planktonic cells) and Table 2 (biofilm-associated cells).
(§6) The determination of MICs was performed according to Chlumsky et al.. Briefly, 96-well flat-bottomed microtiter plates were inoculated with 75 µL (for biofilm formation) or 100 µL (for preformed biofilm) of bacterial suspension (A625nm 0.08 to 0.1) in technical triplicates and were then carefully mixed with the dilution series of the test substances (24 h cultivation at 25 °C for S. Infantis, 37 °C for other strains) or were directly cultivated to preform biofilms (18 h). For a positive control of bacterial growth, the inoculum was mixed with a pure sterile medium. Furthermore, the sterile medium was included in the plate as a marker of potential microbial contamination. To evaluate planktonic cells growth (MICPC80) and further growth of biofilm cells (MICBC80), the optical density of the content of the microtiter plates was measured spectrophotometrically at 625 nm before and after 24 h (for biofilm formation) of cultivation or before and after additional 20 h incubation with the tested compound (for preformed biofilm). The difference of A625nm was considered as a measure of the ability of cells to grow in the presence of the tested substances. To evaluate the inhibition of biofilm formation (MICBF80) and reduction in preformed biofilms (MICBR80), biomass was quantified using crystal violet staining, and its metabolic activity (MICBM80 and MICMPB80) was estimated by using the MTT (thiazyl tetrazolium bromide, Sigma-Aldrich, USA) reduction assay, both measured spectrophotometrically at 595 nm.
(§7) All inhibitions were calculated using the formula of Chlumsky et al. below (Equation (1)):(1) A625(595)nm inhibition (%)=A625(595)nm (control) – A625(595)nm(natural substance)/A625(595)nm (control)× 100 where A625(595)nm (control) is the absorbance of bacterial suspension/biofilm itself, and A625(595)nm(natural substance) is the absorbance of the bacterial suspension/biofilm with the added natural substance (NAC, RLs, and UA).
(§8) When the minimum inhibitory concentration could not be determined, the MIC was established as >the highest tested concentration for NAC, RLs, and UA.

[4] = tested on: S. Infantis S13; test: MIC for reduction of preformed biofilm (crystal violet staining); assay type: cell-based, Salmonella enterica Infantis; conditions: for MICBR80: ≥80% reduction of preformed biofilm (18 h), 20 h with substance
Method: as §5, §6, §7, §8

[5] = tested on: S. Infantis S59; test: as above; assay type: cell-based, Salmonella enterica Infantis; conditions: for MICBR80: ≥80% reduction of preformed biofilm (18 h), 20 h with substance
Method: as §5, §6, §7, §8

[6] = preformed biofilm, within tested concentrations

Row | SMILES | proportion of membrane-compromised cells ([1]; MIC) | Thickness (µm) MICBM80 [1] [µm] | Thickness (µm) subCBM80 [1] [µm] | Thickness (µm) MICBM80 [2] [µm] | Thickness (µm) subCBM80 [2] [µm] | maximal achieved inhibition (MICBM80 not reached) ([3]; within tested concentrations) [%] | MICBM80 [3] | maximal achieved inhibition (MICBR80 not reached), biofilm reduction [4, 6] [%] | MICBR80 [4] | maximal achieved inhibition (MICBR80 not reached), biofilm reduction [5, 6] [%] | MICBR80 [5] | proportion of membrane-compromised cells ([1]; MIC and subinhibitory concentration) | proportion of membrane-compromised cells, increase ([2]; 24 h, MIC)
1 | CC(=O)c1c(O)c(C)c(O)c2c1OC1=CC(=O)C(C(C)=O)C(=O)C12C (single isomer, unassigned; (+)) [UA, (+)-usnic acid] | up to 15% | 175 ± 79.4 | 268 ± 68.9 | 325 ± 70.5 | 417 ± 40.4 | 41 | > 31.3 µg/mL | 30 | > 31.3 µg/mL | 21 | > 31.3 µg/mL |  | 
2 | CC(=O)N[C@@H](CS)C(=O)O [NAC, N-Acetyl-L-cysteine] |  | 86.5 ± 2.6 | 238 ± 32 | 158 ± 93.2 | 288 ± 40.6 |  | 12,500 µg/mL |  | 12,500 µg/mL |  | 100,000 µg/mL | up to 25% | about 45%
